The species named for assay [1] is Cavia porcellus. Kind of assay: Compound was tested for inhibition of LTD4 induced contraction of guinea pig ileum. The format is functional.
The species entered for assay [2] is Cavia porcellus. Kind of assay: Compound was tested for inhibition of LTD4 induced contraction of guinea pig ileum at a concentration 5E-5 M; NS means No significant effect. It counts as functional.

As for `CCCCC/C=C\C\C=C/C=C/C=C/c1conc1CCC(=O)OC`, it took 60 µM to reach half-maximal inhibition in assay [1] (IC50).

On to `CCCCC/C=C\C\C=C/C=C/C=C/c1cc(CCC(=O)OC)no1`, for which the IC50 (usually the concentration that gives 50% inhibition) in assay [2] was “Not Active”.

In assay [1], `CCCCC/C=C\C\C=C/C=C/C=C/C1CC(CCC(=O)OC)=NO1` (stereo not given) returned an IC50 of 95 µM.

In the case of `CCCCC/C=C\C\C=C/C=C/C=C/c1conc1CCCC(=O)OC`, the IC50 in assay [1] was found to be 56 µM.

As to `CCCCCCCCCC/C=C/C=C/c1cc(CCC(=O)OC)no1`, the IC50 result in assay [2] is reported as “Not Active”.

The record behind these values is ChEMBL document CHEMBL1127985, “Synthesis and biological evaluation of new LTA4 analogs” (Bioorg Med Chem Lett, 1994).
